# Data from US10167262B2, “Herbicidal substituted 3-arylpyrazoles” (FMC CORPORATION, priority 2014, dated 2019).
# Like-named read-outs stand apart in the source and are kept apart here.
# What was measured:
# Assay type in all cases: in vivo
# [1] = test system: morningglory (Ipomoea coccinea); assay: Test C pre-/postemergence greenhouse test, plant response rating 0-100; conditions: Ipomoea; for pest or weed control at 62 g/ha: 62 g ai/ha; for pest or weed control at 125 g/ha: 125 g ai/ha; for pest or weed control at 250 g/ha: 250 g ai/ha; for pest or weed control at 500 g/ha: 500 g ai/ha
# How it was run: (§1)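 Scores run from 0, no effect, to 100, complete control, assigned by eye after treated plants and controls spent 13 to 15 days in a greenhouse. Soil-applied treatment went onto freshly sown seed in loam and sand; foliar treatment hit seedlings at the 1- to 4-leaf stage.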
# [2] = test system: johnsongrass (Sorghum halepense); assay: as above; conditions: Sorghum halepense; for pest or weed control at 62 g/ha: 62 g ai/ha; for pest or weed control at 125 g/ha: 125 g ai/ha; for pest or weed control at 250 g/ha: 250 g ai/ha; for pest or weed control at 500 g/ha: 500 g ai/ha
# How it was run: as §1
# [3] = test system: velvetleaf (Abutilon theophrasti); assay: as above; conditions: Abutilon theophrasti; for pest or weed control at 62 g/ha: 62 g ai/ha; for pest or weed control at 125 g/ha: 125 g ai/ha; for pest or weed control at 250 g/ha: 250 g ai/ha; for pest or weed control at 500 g/ha: 500 g ai/ha
# How it was run: as §1
# [4] = test system: lambsquarters (Chenopodium album); assay: as above; conditions: Chenopodium album; for pest or weed control at 62 g/ha: 62 g ai/ha; for pest or weed control at 125 g/ha: 125 g ai/ha; for pest or weed control at 250 g/ha: 250 g ai/ha; for pest or weed control at 500 g/ha: 500 g ai/ha
# How it was run: as §1
# [5] = test system: pigweed (Amaranthus retroflexus); assay: Test A pre-/postemergence greenhouse herbicide test, visual injury rating 0-100; conditions: for pest or weed control at 500 g/ha: 500 g ai/ha
# How it was run: (§2)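 Formulated in non-phytotoxic solvent with surfactant, compounds were applied pre- and postemergence simultaneously. Soil: loam–sand blend. Visual injury, 0 = no effect to 100 = complete control, ~10 days.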
# [6] = test system: wheat (Triticum aestivum); assay: as above; conditions: for plant injury at 500 g/ha: 500 g ai/ha
# How it was run: as §2
# corn (Zea mays) = assay: as above; conditions: for plant injury at 500 g/ha: 500 g ai/ha
# How it was run: as §2
# [7] = test system: giant foxtail (Setaria faberii); assay: as above; conditions: for pest or weed control at 500 g/ha: 500 g ai/ha
# How it was run: as §2
# [8] = test system: large (Lg) crabgrass (Digitaria sanguinalis); assay: as above; conditions: for pest or weed control at 500 g/ha: 500 g ai/ha
# How it was run: as §2
# [9] = test system: velvetleaf (Abutilon theophrasti); assay: as above; conditions: Abutilon theophrasti, 240 h, read-out: Plant response rating (0 to 100 scale), Velvetleaf; for pest or weed control at 500 g/ha: 500 g ai/ha
# How it was run: as §2
# [10] = test system: morningglory (Ipomoea spp.); assay: as above; conditions: for pest or weed control at 500 g/ha: 500 g ai/ha
# How it was run: as §2
# [11] = test system: barnyardgrass (Echinochloa crus-galli); assay: as above; conditions: for pest or weed control at 500 g/ha: 500 g ai/ha
# How it was run: as §2
# [12] = post-emergence, Postemergence, read-out: Plant response rating (0 to 100), Morningglory
# [13] = post-emergence, Postemergence, scale 0 to 100
# [14] = pre-emergence, Preemergence, read-out: Plant response rating, Morningglory
# [15] = post-emergence, Postemergence, read-out: Plant response rating (0 to 100), Johnsongrass
# [16] = pre-emergence, Preemergence, read-out: Plant response rating, Johnsongrass
# [17] = post-emergence, Postemergence, read-out: Plant response rating (0 to 100), Velvetleaf
# [18] = pre-emergence, Preemergence, read-out: Plant response rating, Velvetleaf
# [19] = post-emergence, Postemergence, read-out: Plant response rating (0 to 100), Lambsquarters
# [20] = pre-emergence, Preemergence, read-out: Plant response rating, Lambsquarters
compound,measurement,setting,value
"COC(OC)(c1ccccc1)c1c[nH]nc1-c1cc(Cl)cc(Cl)c1 [Compound 13, 3-(3,5-dichlorophenyl)-4-(dimethoxyphenylmethyl)-1H-pyrazole]",pest or weed control at 62 g/ha,[1]; [12],0%
same,pest or weed control at 125 g/ha,[1]; [12],0%
same,pest or weed control at 250 g/ha,[1]; [13],10%
same,pest or weed control at 500 g/ha,[1]; [13],10%
same,pest or weed control at 62 g/ha,[1]; [14],0%
same,pest or weed control at 125 g/ha,[1]; [14],0%
same,pest or weed control at 250 g/ha,"[1]; pre-emergence, Preemergence",0%
same,pest or weed control at 500 g/ha,"[1]; pre-emergence, Preemergence",0%
same,pest or weed control at 62 g/ha,[2]; [15],0%
same,pest or weed control at 125 g/ha,[2]; [15],0%
same,pest or weed control at 250 g/ha,[2]; [13],0%
same,pest or weed control at 500 g/ha,[2]; [13],0%
same,pest or weed control at 62 g/ha,[2]; [16],0%
same,pest or weed control at 125 g/ha,[2]; [16],0%
same,pest or weed control at 250 g/ha,"[2]; pre-emergence, Preemergence",0%
same,pest or weed control at 500 g/ha,"[2]; pre-emergence, Preemergence",0%
same,pest or weed control at 62 g/ha,[3]; [17],70%
same,pest or weed control at 125 g/ha,[3]; [17],75%
same,pest or weed control at 250 g/ha,[3]; [13],85%
same,pest or weed control at 500 g/ha,[3]; [13],80%
same,pest or weed control at 62 g/ha,[3]; [18],60%
same,pest or weed control at 125 g/ha,[3]; [18],85%
same,pest or weed control at 250 g/ha,"[3]; pre-emergence, Preemergence",75%
same,pest or weed control at 500 g/ha,"[3]; pre-emergence, Preemergence",100%
same,pest or weed control at 62 g/ha,[4]; [19],75%
same,pest or weed control at 125 g/ha,[4]; [19],80%
same,pest or weed control at 250 g/ha,[4]; [13],98%
same,pest or weed control at 500 g/ha,[4]; [13],98%
same,pest or weed control at 62 g/ha,[4]; [20],100%
same,pest or weed control at 125 g/ha,[4]; [20],100%
same,pest or weed control at 250 g/ha,"[4]; pre-emergence, Preemergence",100%
same,pest or weed control at 500 g/ha,"[4]; pre-emergence, Preemergence",100%
same,pest or weed control at 125 g/ha,"[5]; Amaranthus retroflexus, post-emergence, 240 h, Postemergence, 125 g ai/ha, read-out: Plant response rating (0 to 100 scale), Pigweed",90%
same,pest or weed control at 500 g/ha,"[5]; Amaranthus retroflexus, post-emergence, 240 h, Postemergence, read-out: Plant response rating (0 to 100 scale), Pigweed",100%
same,pest or weed control at 500 g/ha,"[5]; Amaranthus retroflexus, pre-emergence, 240 h, Preemergence, read-out: Plant response rating (0 to 100 scale), Pigweed",100%
same,"Pigweed plant response rating (0 = no effect, 100 = complete control)","[5]; Preemergence, 125 g ai/ha",70
same,"Wheat plant response rating (0 = no effect, 100 = complete control)","[6]; Preemergence, 125 g ai/ha",0
same,plant injury at 125 g/ha,"[6]; Triticum aestivum, post-emergence, 240 h, Postemergence, 125 g ai/ha, read-out: Plant response rating (0 to 100 scale), Wheat",0%
same,plant injury at 500 g/ha,"[6]; Triticum aestivum, post-emergence, 240 h, Postemergence, read-out: Plant response rating (0 to 100 scale), Wheat",0%
same,plant injury at 500 g/ha,"[6]; Triticum aestivum, pre-emergence, 240 h, Preemergence, read-out: Plant response rating (0 to 100 scale), Wheat",0%
same,"Corn plant response rating (0 = no effect, 100 = complete control)","corn (Zea mays); Preemergence, 125 g ai/ha",0
same,plant injury at 125 g/ha,"corn (Zea mays); Zea mays, post-emergence, 240 h, Postemergence, 125 g ai/ha, read-out: Plant response rating (0 to 100 scale), Corn",0%
same,plant injury at 500 g/ha,"corn (Zea mays); Zea mays, post-emergence, 240 h, Postemergence, read-out: Plant response rating (0 to 100 scale), Corn",0%
same,plant injury at 500 g/ha,"corn (Zea mays); Zea mays, pre-emergence, 240 h, Preemergence, read-out: Plant response rating (0 to 100 scale), Corn",0%
same,"Foxtail, Giant plant response rating (0 = no effect, 100 = complete control)","[7]; Preemergence, 125 g ai/ha",0
same,pest or weed control at 125 g/ha,"[7]; Setaria faberi, post-emergence, 240 h, Postemergence, 125 g ai/ha, read-out: Plant response rating (0 to 100 scale), Foxtail, Giant",0%
same,pest or weed control at 500 g/ha,"[7]; Setaria faberi, post-emergence, 240 h, Postemergence, read-out: Plant response rating (0 to 100 scale), Foxtail, Giant",0%
same,pest or weed control at 500 g/ha,"[7]; Setaria faberi, pre-emergence, 240 h, Preemergence, read-out: Plant response rating (0 to 100 scale), Foxtail, Giant",0%
same,pest or weed control at 125 g/ha,"[8]; Digitaria sanguinalis, post-emergence, 240 h, Postemergence, 125 g ai/ha, read-out: Plant response rating (0 to 100 scale), Crabgrass, Large",0%
same,pest or weed control at 500 g/ha,"[8]; Digitaria sanguinalis, post-emergence, 240 h, Postemergence, read-out: Plant response rating (0 to 100 scale), Crabgrass, Large",0%
same,pest or weed control at 500 g/ha,"[8]; Digitaria sanguinalis, pre-emergence, 240 h, Preemergence, read-out: Plant response rating (0 to 100 scale), Crabgrass, Large",0%
same,"Crabgrass, Large plant response rating (0 = no effect, 100 = complete control)","[8]; Preemergence, 125 g ai/ha",0
same,pest or weed control at 125 g/ha,"[9]; post-emergence, Postemergence, 125 g ai/ha",80%
same,pest or weed control at 500 g/ha,"[9]; post-emergence, Postemergence",90%
same,pest or weed control at 500 g/ha,"[9]; pre-emergence, Preemergence",70%
same,pest or weed control at 125 g/ha,"[10]; Ipomoea, post-emergence, 240 h, Postemergence, 125 g ai/ha, read-out: Plant response rating (0 to 100 scale), Morningglory",0%
same,pest or weed control at 500 g/ha,"[10]; Ipomoea, post-emergence, 240 h, Postemergence, read-out: Plant response rating (0 to 100 scale), Morningglory",0%
same,pest or weed control at 500 g/ha,"[10]; Ipomoea, pre-emergence, 240 h, Preemergence, read-out: Plant response rating (0 to 100 scale), Morningglory",0%
same,"Morningglory plant response rating (0 = no effect, 100 = complete control)","[10]; Preemergence, 125 g ai/ha",0
same,pest or weed control at 125 g/ha,"[11]; Echinochloa crus-galli, post-emergence, 240 h, Postemergence, 125 g ai/ha, read-out: Plant response rating (0 to 100 scale), Barnyardgrass",0%
same,pest or weed control at 500 g/ha,"[11]; Echinochloa crus-galli, post-emergence, 240 h, Postemergence, read-out: Plant response rating (0 to 100 scale), Barnyardgrass",0%
same,pest or weed control at 500 g/ha,"[11]; Echinochloa crus-galli, pre-emergence, 240 h, Preemergence, read-out: Plant response rating (0 to 100 scale), Barnyardgrass",0%
same,"Barnyardgrass plant response rating (0 = no effect, 100 = complete control)","[11]; Preemergence, 125 g ai/ha",0
